Test results as given in the CheMixHub ionic liquid set.
± gives the uncertainty stated by the source.

Experiment: xn = mol fraction of the nth substance listed

CC(=O)O.CC(=O)[O-].CC[NH+](CC)CCO + CCCC[n+]1ccn(C)c1.COP(=O)([O-])OC
101 kPa
Conditions | viscosity [mPa·s]
278.15 K, x1 = 0.3316 | 453 ± 17
278.15 K, x1 = 0.5275 | 335 ± 11
283.15 K, x1 = 0.7493 | 220 ± 6.5
288.15 K, x1 = 0.5275 | 168.3 ± 4.1
293.15 K, x1 = 0.0748 | 568 ± 20
293.15 K, x1 = 0.7493 | 116.3 ± 2.9
298.15 K, x1 = 0.5275 | 93.7 ± 2
298.15 K, x1 = 0.6343 | 91.1 ± 2
298.15 K, x1 = 0.8567 | 76.9 ± 1.9
303.15 K, x1 = 0.0748 | 283.6 ± 7.4
303.15 K, x1 = 1 | 59.6 ± 1.6
308.15 K, x1 = 0.3316 | 74.6 ± 1.4
308.15 K, x1 = 0.7493 | 53.4 ± 1.2
313.15 K, x1 = 0.5275 | 44.19 ± 0.86
313.15 K, x1 = 0.6343 | 42.6 ± 0.9
318.15 K, x1 = 0.8567 | 27.56 ± 0.67
323.15 K, x1 = 0.5275 | 30.28 ± 0.59
323.15 K, x1 = 0.6343 | 29.17 ± 0.61
323.15 K, x1 = 0.8567 | 22.27 ± 0.54
328.15 K, x1 = 0.0748 | 73.3 ± 1
328.15 K, x1 = 0.4263 | 27.4 ± 0.5
328.15 K, x1 = 0.7493 | 23.34 ± 0.53
333.15 K, x1 = 0.6343 | 18.02 ± 0.38
333.15 K, x1 = 0.7493 | 17.41 ± 0.39
338.15 K, x1 = 0.0748 | 47.83 ± 0.65
343.15 K, x1 = 0.7493 | 13.68 ± 0.31
348.15 K, x1 = 0.6343 | 12.02 ± 0.25
348.15 K, x1 = 1 | 8.93 ± 0.23
358.15 K, x1 = 0.5275 | 9.3 ± 0.18
358.15 K, x1 = 0.8567 | 6.94 ± 0.17
358.15 K, x1 = 1 | 6.65 ± 0.17
363.15 K, x1 = 1 | 5.8 ± 0.15
368.15 K, x1 = 0.5275 | 7.03 ± 0.14
368.15 K, x1 = 0.6343 | 6.64 ± 0.14

CCCCCCCCCCCCOS(=O)(=O)[O-].[Na+] + CC(C)O + O
298 K, 100 kPa, frequency 0.001 MHz
Conditions | electrical conductivity [S/m]
x2 = 0.04868, x3 = 0.9512 | 0.0308 ± 0.00058
x2 = 0.1358, x3 = 0.8641 | 0.0155 ± 0.00052

C[N+](C)(C)CCO.O=S(=O)([N-]S(=O)(=O)C(F)(F)F)C(F)(F)F + OCCCCCO
101 kPa
Conditions | viscosity [mPa·s]
318.15 K, x2 = 0.2149 | 37.3 ± 2.1
323.15 K, x2 = 0 | 39.3 ± 2.2
323.15 K, x2 = 0.2149 | 31.2 ± 1.8
328.15 K, x2 = 0.2149 | 26.3 ± 1.5
333.15 K, x2 = 0.2149 | 22.5 ± 1.3
338.15 K, x2 = 0.4145 | 16.11 ± 0.95
343.15 K, x2 = 0.6847 | 12.37 ± 0.74

CC[S+](CC)CCOCCOCCOCC[S+](CC)CC.O=S(=O)([N-]S(=O)(=O)C(F)(F)F)C(F)(F)F.O=S(=O)([N-]S(=O)(=O)C(F)(F)F)C(F)(F)F + CC[n+]1ccn(C)c1.N#C[N-]C#N + O=S(=O)([N-]S(=O)(=O)C(F)(F)F)C(F)(F)F.[Li+]
100 kPa, x1 = 0.1475, x2 = 0.7497
Conditions | electrical conductivity [S/m]
298 K | 0.673 ± 0.027
303 K | 0.826 ± 0.033
313 K | 1.15 ± 0.046
323 K | 1.46 ± 0.058
333 K | 1.79 ± 0.072
343 K | 2.05 ± 0.082

CCCCCCCCCCCCCCCC[N+](C)(C)C.[Br-] + OC[C@H]1O[C@H](O[C@H]2[C@H](O)[C@@H](O)C(O)O[C@@H]2CO)[C@H](O)[C@@H](O)[C@@H]1O + O
viscosity [mPa·s], 100 kPa
Conditions | 298.15 K | 308.15 K | 318.15 K
x1 = 7.21e-06, x2 = 0 | 0.896 ± 0.061 | 0.742 ± 0.061 | 0.617 ± 0.061
x1 = 1.442e-05, x2 = 0 | 0.898 ± 0.061 | 0.744 ± 0.061 | 0.617 ± 0.061
x1 = 2.162e-05, x2 = 0 | 0.9 ± 0.061 | 0.745 ± 0.061 | 0.617 ± 0.061

CC(=O)[O-].CCOCCn1cc[n+](C)c1 + O
100 kPa
Conditions | electrical conductivity [S/m] | viscosity [mPa·s]
293.15 K, x1 = 0.9129 | 0.288 ± 0.02 | 35.75 ± 0.38
293.15 K, x1 = 0.9447 | 0.25 ± 0.02 | 36.71 ± 0.39
298.15 K, x1 = 0.9447 | 0.31 ± 0.02 | 28.98 ± 0.33
303.15 K, x1 = 0.9447 | 0.394 ± 0.02 | 23.12 ± 0.29
308.15 K, x1 = 0.8821 | 0.586 ± 0.02 | 17.7 ± 0.26
313.15 K, x1 = 0.8524 | 0.764 ± 0.02 | 14.07 ± 0.24
313.15 K, x1 = 0.8821 | 0.719 ± 0.02 | 14.45 ± 0.24
313.15 K, x1 = 1 | 0.568 ± 0.02 | 15.8 ± 0.24
